# Results published in ChEMBL document CHEMBL1201862, “PubChem BioAssay data set” (2004).
#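 Results reflect a 48-hour exposure of cells in 96-well plates to compound at five concentrations. Abbreviation: GI50, concentration required for 50% inhibition of growth.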 Active and inactive are the calls of the source. Rule as the data show it: active = GI50 up to about 1.1 µM and inactive = higher.
# Columns and labels:
# Test in all cases: inhibition of tumour cell growth, NCI panel, 48 h
# BT-549 = system: BT-549
# SNB-78 = system: SNB-78
# DMS-114 = system: DMS-114
# HOP-18 = system: HOP-18
# XF498 = system: XF498
# DMS-273 = system: DMS-273
# LXFL 529 = system: LXFL 529
# KM-20L2 = system: KM-20L2
smiles,measurement,setting,value
NCCC(N)C(=O)O (stereo not drawn),GI50,BT-549,> 100 µM (inactive)
O=C(Cc1ccccc1)NN1C(=O)C(Cl)C1c1cc(Br)ccc1O (stereo not drawn),GI50,SNB-78,8 µM (inactive)
same,GI50,DMS-114,2.23 µM (inactive)
same,GI50,HOP-18,5.01 µM (inactive)
same,GI50,XF498,7.76 µM (inactive)
same,GI50,DMS-273,5.19 µM (inactive)
same,GI50,LXFL 529,5.68 µM (inactive)
same,GI50,KM-20L2,9.64 µM (inactive)
Cc1cc(-c2ccccc2)cc2[n+]1CC=C2.[O-][Cl+3]([O-])([O-])[O-],GI50,SNB-78,> 100 µM (inactive)
same,GI50,DMS-114,77.4 µM (inactive)
same,GI50,HOP-18,< 0.01 µM (active)
same,GI50,DMS-273,46.7 µM (inactive)
same,GI50,LXFL 529,58.3 µM (inactive)
same,GI50,KM-20L2,> 100 µM (inactive)
CC(C)(C)c1cc(-c2ccc(-c3cc(C(C)(C)C)c(O)c(C(C)(C)C)c3)cc2)cc(C(C)(C)C)c1O,GI50,BT-549,> 100 µM (inactive)
CCCCCCCC(CC(=O)NC(CO)C(=O)NC(CO)CC(C)C)OC(=O)CC(CCCCCCC)OC(=O)CC(CCCCCCC)OC1OC(C)C(O)C(OC2OC(C)C(O)C(O)C2OC(C)=O)C1O (stereo not drawn),GI50,BT-549,12.5 µM (inactive)
Cc1ccc(NC(S)=Nc2c(C)n(C)n(-c3ccccc3)c2=O)cc1,GI50,BT-549,> 100 µM (inactive)
CC(C)(CN1CCCCC1)C(=O)/C=C/c1ccc(Br)cc1,GI50,SNB-78,8.07 µM (inactive)
same,GI50,DMS-114,1.47 µM (inactive)
same,GI50,HOP-18,2.47 µM (inactive)
same,GI50,XF498,2.05 µM (inactive)
same,GI50,DMS-273,2 µM (inactive)
same,GI50,LXFL 529,1.81 µM (inactive)
same,GI50,KM-20L2,2.49 µM (inactive)
CC(=O)c1sc(Nc2ccc(Cl)c(Cl)c2)nc1C,GI50,BT-549,> 100 µM (inactive)
COc1cccc(NC(=O)c2c(N)n[nH]c2SC)c1,GI50,BT-549,> 100 µM (inactive)
Cc1ccc(NC(c2ccccc2)P(=O)(c2ccccc2)c2ccccc2)cc1 (stereo not drawn),GI50,BT-549,> 100 µM (inactive)
COC(=O)c1ccc(C)cc1CC1Cc2cccc(C)c2C1=O (stereo not drawn),GI50,BT-549,9.77 µM (inactive)
C[C@@H](c1ccccc1)n1c(N)c(C#N)c2ccc([N+](=O)[O-])cc2c1=O,GI50,BT-549,1.69 µM (inactive)
CC1(C)N=[N+]([O-])C1(C)C,GI50,BT-549,> 100 µM (inactive)
O=C(/C=C/c1ccccc1O)c1ccccc1O,GI50,SNB-78,> 100 µM (inactive)
same,GI50,DMS-114,16.7 µM (inactive)
same,GI50,DMS-273,> 100 µM (inactive)
same,GI50,KM-20L2,> 100 µM (inactive)
CC(C)(C)OC(=O)n1c(-c2ccccc2F)cc(=O)c2cc3c(cc21)OCO3,GI50,BT-549,19.8 µM (inactive)
CSC(=S)NN=C1CCCCC1,GI50,BT-549,45.2 µM (inactive)
Cc1cc(Cl)cc2c1NC(=O)C2(O)CC(=O)c1ccc(F)cc1 (stereo not drawn),GI50,SNB-78,31.4 µM (inactive)
same,GI50,HOP-18,11.3 µM (inactive)
same,GI50,XF498,32.1 µM (inactive)
same,GI50,DMS-273,77.3 µM (inactive)
same,GI50,KM-20L2,> 100 µM (inactive)
CCOc1ccc2c(c1)NC(=O)C(C1OC(c3ccccc3)=CC1=O)S2 (stereo not drawn),GI50,BT-549,32.1 µM (inactive)
NS(=O)(=O)c1ccc(N=C2C(=O)Nc3ccccc32)cc1,GI50,BT-549,> 100 µM (inactive)
CNC(=S)NNc1ncnc2c1c(-c1ccc(Cl)cc1)cn2-c1ccc(C)cc1,GI50,BT-549,14.2 µM (inactive)
CC(=O)O[C@H]1C(=O)[C@@]2(C)C(C(OC(=O)c3ccccc3)C3[C@@H](O)C(OC(=O)[C@@H](O)[C@H](NC(=O)c4ccccc4)c4ccc(C(F)(F)F)cc4)C(C)=C1C3(C)C)[C@]1(OC(C)=O)CO[C@@H]1C[C@@H]2O (stereo partly drawn),GI50,SNB-78,> 25 µM (inactive)
same,GI50,DMS-114,11.3 µM (inactive)
same,GI50,DMS-273,11.7 µM (inactive)
same,GI50,LXFL 529,15.2 µM (inactive)
same,GI50,KM-20L2,8.73 µM (inactive)
Cc1nc2c(Br)cc(Br)cc2c(=O)n1-c1ccccc1NC1OC(CO)C(O)C(O)C1O (stereo not drawn),GI50,BT-549,> 100 µM (inactive)
CCOC(=O)C(SCCO)C(C(=O)OCC)n1cc(C)c(=O)[nH]c1=O (stereo not drawn),GI50,BT-549,23.6 µM (inactive)
COC(=O)CCC(C)C1CCC2C3C(C[C@H](OC(C)=O)[C@]12C)[C@@]1(C)CCC2(C[C@H]1C[C@H]3OC(C)=O)OOC1(CC[C@]3(C)C4C[C@H](OC(C)=O)[C@]5(C)C(C(C)CCC(=O)OC)CCC5C4[C@H](OC(C)=O)C[C@@H]3C1)OO2 (stereo partly drawn),GI50,BT-549,97.3 µM (inactive)
CC(C)=Nn1cnc(C(=N)C#N)c1N,GI50,BT-549,> 100 µM (inactive)
